Legend:
[1] = target: T1, BRAF (Homo sapiens, UniProt P15056); assay: BRAF kinase activity assay (ADP-Glo); assay type: biochemical; conditions: Table 3; 10 μM ATP, kinase-dead MEK1 substrate
T1 construct: GST; purchased Millipore Sigma B4062-10UG
Method: (§1) Compound preparation: solid samples of each substance in 1dram vials were suspended in DMSO (Fisher Scientific) at a stock concentration of 20 mM. Stocks were kept at −20° C. and protected from light. If solubility of the compound at 20 mM appeared to be an issue, the initial concentration of the DMSO stock was changed to 10 mM or 5 mM.
(§2) In vitro enzymatic reactions were used for evaluating compounds intrinsic activity against BRAF, CRAF and ARAF. For BRAF and CRAF, 0.375 nM of purified GST-tagged kinases (cat. No. B4062-10UG and cat. No. R1656-10UG respectively from Millipore Sigma) were incubated with 75 nM of kinase-dead MEK1 substrate (cat. No. 40075; BPS Bioscience) in the presence of 10 μM of Ultrapure ATP (cat. No. V9102; Promega; part V915A) with and without the test compound in a buffer containing 50 mM HEPES pH 7.5, 10 mM MgCl2, 1 mM EDTA, 0.01% Brij-35 and 2 mM DTT. Separate reactions were performed with the MEK1 substrate and ATP as a blank control. ARAF kinase reactions were rigorously the same with the exception that kinase concentration was raised to 3.75 nM (cat. No. 1768-0000-1; Reaction Biology).
(§3) For compound treatment, 5 μL/well of test substance solution are placed in a 384-well proxyplate (Perkin Elmer) and mixed with 2× concentrated kinase reactions. The dilution series is selected so that nine concentrations cover a range from 100 nM to 0.01 nM. […] The final concentration of DMSO in the assay is set at 0.05%.
(§4) BRAF and CRAF kinase reactions were carried out for a total of 2 hours at 30° C. and then stopped by 1/2 dilution in ADP-Glo Reagent (cat. No. V9102; Promega; part V912C). Reactions were then incubated for 1 h at room temperature before addition of one volume of Kinase Detection Reagent (cat. No. V9102; Promega; part V917A). Plates were then equilibrated at room temperature for 30 minutes before detection of luminescence on a Synergy Neo2 plate reader (Biotek). The effect of each compound dilution on BRAF and CRAF kinase activity was expressed as % inhibition and calculated as follows. First, the internal 100% inhibition control (average of luminescence in kinase reactions comprising kinase dead MEK1 substrate alone) was subtracted from each data point. The average of DMSO (vehicle) controls (set as 0% inhibition) was established and used to calculate % inhibition:
(§5) IC50 values were obtained by plotting the kinase inhibition values and fitting the dose-activity curves using a log(agonist) versus response—variable slope (four parameters) function using either GraphPadPrism (V7.0) or Dotmatics Screening Ultra platform. Standards included in the ARAF kinase assay were Belvarafenib (MedChem Express cat. No. HY-109080; CAS No. 1446113-23-0), LXH254 (MedChem Express cat. No. HY-112089; CAS No. 1800398-38-2) and BGB283 (cat. No. HY-18957; CAS No. 1446090-79-4).

[2] = target: T2, CRAF (Homo sapiens, UniProt P04049); assay: CRAF kinase activity assay (ADP-Glo); assay type: biochemical; conditions: Table 3; 10 μM ATP, kinase-dead MEK1 substrate
T2 construct: fused on or other part: GST tag (N-terminal according to the vendor's product)
Method: as §1, §2, §3, §4, §5

[3] = test system: pERK, HCT116 cells; assay: Phospho-ERK inhibition, AlphaLISA p-ERK 1/2, HCT-116; assay type: cell-based, human; conditions: Table 3; for IC50: HCT116 cells (KRAS G13D), 1 h treatment; for HCT116 pERK (Ymin %): lowest % inhibition value of the pERK IC50 curve, above −20% = no paradoxical induction
Method: All cancer cell lines (A375, A101D, A2058, RKO, HT29 SK-MEL 30, IPC298, HepG2, HCT-116, Lovo, SW620, SW480, NCI-H358, NCI-H2122, Calu-6, NCIH2087, NCIH1755, NCIH1666 and Mewo) were obtained from ATCC and cultured in RPM1-1640 medium (Gibco) supplemented with 5% heat inactivated fetal bovine serum (FBS, Wisent) at 37° C. under 5% CO2. Cells were maintained in T175 flasks (Greiner). They were passaged by removing the culture medium, washing once in 10 mL of room temperature Phosphate Buffered Saline (PBS; Wisent) and incubating at 37° C. with 2 mL of 0.05% Trypsin (Thermo-Fisher). Trypsin was then inactivated by adding complete growth medium and the cells were then replated in a T175 culture dish at the appropriate dilution. All cell lines were routinely tested for mycoplasma contamination. Tissue type and mutational status of each cell line can be found in Table B.
(c) Measurement of Phospho-ERK Inhibition in Cultivated Human Cancer Cell Lines by the AlphaLISA® SureFire® Ultra™ p-ERK 1/2 (Thr2O2/Tyr204)
AlphaLISA® SureFire® Ultra™ p-ERK 1/2 (Thr202/Tyr204) analysis was conducted on cells plated in 100 μL of complete RPMI-1640 growth medium in 96-well flat-bottomed transparent dishes (Costar) at a density indicated in Table C. Cells were maintained overnight at 37° C. under 5% CO2 before treatment with compounds' dilution series for one hour. The cell density in cells/cm^2 corresponds to cell number divided by the area of one well of a 96-well plate (0.143 cm^2).
In a dilution series 100 μL/well of test substance dilution prepared in complete RPMI-1640 growth media was added to the cells. The dilution series is selected so that ten concentrations cover a range from 10 μM to 0.33 nM. If necessary, the initial concentration of 10 μM is increased to 100 μM or lowered to 1 μM (as in the case of A375 and H1666 cells, which are generally more sensitive to the compounds) and further dilution is carried out accordingly. The final concentration of DMSO in the assay is set at 0.5%.
After treatment, media was removed, and cells were lysed in 50 μL of 1× AlphaScreen Ultra Lysis Buffer (Perkin Elmer). The AlphaLISA® SureFire® Ultra™ p-ERK 1/2 (Thr202/Tyr204) (PerkinElmer) reactions were performed with 5 μL of cell lysate according to the manufacturer's specifications in 384-well proxyplates (Perkin Elmer) followed by overnight incubation of the reactions at room temperature in a humidified chamber. After completion of the reactions, the signals were recorded on an EnVision plate reader (Perkin Elmer) using built in AlphaLISA® settings.
The effect of each compound dilution on the pERK signal was expressed in % inhibition and calculated as follows. An internal 100% inhibition control (1 μM trametinib, cat. No. HY-10999; MedChem Express; CAS No. 871700-17-3) was included in each plate and used as a measure of pERK background. First, the value obtained for trametinib was subtracted from each data point. The average of DMSO (vehicle) controls (set as 0% inhibition) was established and used to calculate % inhibition:
The ability of each compound to inhibit pERK signal was expressed as an IC50 value obtained by plotting the inhibition values for each data point of a dilution series and fitting the obtained curves using a log(agonist) versus response—variable slope (four parameters) function using GraphPadPrism (V7.0) or Dotmatics Screening Ultra platform.
When present, paradoxical pERK induction is inferred from the negative % inhibition values observed in the pERK IC50 curves of a compound.

T2 sequence (P04049 whole entry Y340E/Y341E, form open, the tested form may be a part): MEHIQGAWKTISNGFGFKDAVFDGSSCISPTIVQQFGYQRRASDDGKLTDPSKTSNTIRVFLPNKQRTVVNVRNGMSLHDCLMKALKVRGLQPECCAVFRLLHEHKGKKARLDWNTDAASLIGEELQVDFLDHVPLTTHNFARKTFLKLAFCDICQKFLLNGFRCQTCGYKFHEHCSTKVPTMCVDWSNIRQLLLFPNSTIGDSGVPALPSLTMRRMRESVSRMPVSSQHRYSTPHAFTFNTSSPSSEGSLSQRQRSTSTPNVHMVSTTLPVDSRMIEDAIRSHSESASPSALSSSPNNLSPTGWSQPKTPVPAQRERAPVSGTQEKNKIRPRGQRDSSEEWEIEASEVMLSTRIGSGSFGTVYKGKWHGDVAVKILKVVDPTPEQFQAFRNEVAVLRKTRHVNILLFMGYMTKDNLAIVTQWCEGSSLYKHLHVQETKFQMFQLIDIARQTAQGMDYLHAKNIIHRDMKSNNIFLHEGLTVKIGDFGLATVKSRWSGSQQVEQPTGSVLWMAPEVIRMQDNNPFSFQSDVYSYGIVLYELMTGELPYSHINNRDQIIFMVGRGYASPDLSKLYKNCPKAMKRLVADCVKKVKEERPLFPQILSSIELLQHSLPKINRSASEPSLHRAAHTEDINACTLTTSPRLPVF
T1 sequence (P15056 whole entry): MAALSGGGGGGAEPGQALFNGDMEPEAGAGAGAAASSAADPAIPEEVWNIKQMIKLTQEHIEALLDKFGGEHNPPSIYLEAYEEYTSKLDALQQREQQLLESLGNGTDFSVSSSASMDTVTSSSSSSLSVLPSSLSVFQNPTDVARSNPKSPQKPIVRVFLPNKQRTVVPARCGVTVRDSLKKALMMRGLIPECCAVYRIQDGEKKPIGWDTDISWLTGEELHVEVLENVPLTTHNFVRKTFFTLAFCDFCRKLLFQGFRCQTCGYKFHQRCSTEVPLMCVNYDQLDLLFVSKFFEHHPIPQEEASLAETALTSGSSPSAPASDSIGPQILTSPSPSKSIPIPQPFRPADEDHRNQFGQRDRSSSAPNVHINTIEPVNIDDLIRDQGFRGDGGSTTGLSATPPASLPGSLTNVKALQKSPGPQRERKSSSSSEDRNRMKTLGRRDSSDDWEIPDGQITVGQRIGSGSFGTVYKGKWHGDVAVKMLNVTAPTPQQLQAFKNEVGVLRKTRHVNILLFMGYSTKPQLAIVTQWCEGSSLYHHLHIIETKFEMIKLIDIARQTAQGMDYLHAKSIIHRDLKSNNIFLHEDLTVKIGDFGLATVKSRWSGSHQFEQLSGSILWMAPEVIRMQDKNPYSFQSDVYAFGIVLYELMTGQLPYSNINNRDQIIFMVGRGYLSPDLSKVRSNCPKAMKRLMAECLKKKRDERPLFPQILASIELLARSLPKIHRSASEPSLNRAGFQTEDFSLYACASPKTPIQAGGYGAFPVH

| SMILES | IC50 [1] [nM] | IC50 [2] [nM] | IC50 [3] [nM] | HCT116 pERK (Ymin %) [3] [%] | IC50 ([3]; Homo sapiens, HCT-116) [nM] |
| --- | --- | --- | --- | --- | --- |
| Cc1ncn(-c2nc3c(Nc4c(F)ccc(NS(=O)(=O)c5cccc(F)c5C)c4F)ncnc3s2)c1C [Example 1] | 1 to 10 | < 10 | < 500 | −11 |  |
| Cc1c(F)cccc1S(=O)(=O)Nc1ccc(F)c(Nc2ncnc3sc(-n4cnc5c(N)cccc54)nc23)c1F [Example 2] | 1 to 10 | 10 to 50 | < 500 | −1 |  |
| Nc1cccc2c1ncn2-c1nc2c(Nc3c(F)ccc(NS(=O)(=O)c4cccc(Cl)c4Cl)c3F)ncnc2s1 [Example 3] | 1 to 10 | < 10 | < 500 | −9 |  |
| O=S(=O)(Nc1ccc(F)c(Nc2ncnc3sc(-n4cnc5ccccc54)nc23)c1F)c1cccc(Cl)c1Cl [Example 4, N-[3-[[2-(benzimidazol-1-yl)thiazolo[5,4-d]pyrimidin-7-yl]amino]-2,4-difluoro-phenyl]-2,3-dichloro-benzenesulfonamide] | 1 to 10 | < 10 |  |  | 500 to 1000 |
| Cc1c(Cl)cccc1S(=O)(=O)Nc1ccc(F)c(Nc2ncnc3sc(-n4cnc5c(N)cccc54)nc23)c1F [Example 5] | 1 to 10 | < 10 | < 500 | −6 |  |
| Cc1c(Cl)cccc1S(=O)(=O)Nc1ccc(F)c(Nc2ncnc3sc(-n4cnc5ccccc54)nc23)c1F [Example 6] | 1 to 10 | < 10 | 500 to 1000 | −4 |  |
| Cc1c(F)cccc1S(=O)(=O)Nc1ccc(F)c(Nc2ncnc3sc(-n4cnc5ccccc54)nc23)c1F [Example 7] | 1 to 10 | < 10 | < 500 | −5 |  |
| Cc1c(F)cccc1S(=O)(=O)Nc1ccc(F)c(Nc2ncnc3sc(-n4cnc5c(-c6cccnc6)cccc54)nc23)c1F [Example 8] | 1 to 10 | 10 to 50 |  |  | 500 to 1000 |
| O=S(=O)(Nc1ccc(F)c(Nc2ncnc3sc(-n4cnc5c(-c6cccnc6)cccc54)nc23)c1F)c1cccc(Cl)c1Cl [Example 9] | 1 to 10 | < 10 | 500 to 1000 | −9 |  |
| Cc1c(Cl)cccc1S(=O)(=O)Nc1ccc(F)c(Nc2ncnc3sc(-n4cnc5c(-c6cccnc6)cccc54)nc23)c1F [Example 10] | 1 to 10 | 10 to 50 | 1000 to 10000 | −2 |  |
| CN(Cc1ccncc1)S(=O)(=O)c1cn(-c2nc3c(Nc4c(F)ccc(NS(=O)(=O)c5cccc(Cl)c5Cl)c4F)ncnc3s2)c2ccccc12 [Example 11] | 1 to 10 | < 10 | 1000 to 10000 | 4 |  |
| CN1CCN(S(=O)(=O)c2cn(-c3nc4c(Nc5c(F)ccc(NS(=O)(=O)c6cccc(Cl)c6Cl)c5F)ncnc4s3)c3ccccc23)CC1 [Example 12] | 1 to 10 | 10 to 50 |  |  | 1000 to 10000 |
| COc1ccc(S(=O)(=O)Nc2ccc(F)c(Nc3ncnc4sc(-n5cnc6c(N)cccc65)nc34)c2F)c(C)c1Cl [Example 13] | 1 to 10 | 10 to 50 | 1000 to 10000 | −14 |  |
| COc1ccc(S(=O)(=O)Nc2ccc(F)c(Nc3ncnc4sc(-n5cnc6ccccc65)nc34)c2F)c(C)c1Cl [Example 14] | 1 to 10 | 10 to 50 | 1000 to 10000 | −14 |  |
| COc1ccc(S(=O)(=O)Nc2ccc(F)c(Nc3ncnc4sc(-n5cnc6c(N)cccc65)nc34)c2F)c(C)c1F [Example 15] | 1 to 10 | 10 to 50 | < 500 | −3 |  |
| COc1ccc(S(=O)(=O)Nc2ccc(F)c(Nc3ncnc4sc(-n5cnc6ccccc65)nc34)c2F)c(C)c1F [Example 16] | 1 to 10 | 10 to 50 | 500 to 1000 | −8 |  |
| O=S(=O)(Nc1ccc(F)c(Nc2ncnc3sc(-n4cnc5c(C(F)(F)F)cccc54)nc23)c1F)c1cccc(Cl)c1Cl [Example 17] | 1 to 10 | 10 to 50 |  |  | 1000 to 10000 |
| O=S(=O)(Nc1ccc(F)c(Nc2ncnc3sc(-n4cnc5c(F)cccc54)nc23)c1F)c1cccc(Cl)c1Cl [Example 18] | < 1 | < 10 | < 500 | 0 |  |

— patent publication US20260137697A1, “THIAZOLO[5,4-D]PYRIMIDINE COMPOUNDS, COMPOSITIONS COMPRISING THEM AND USES THEREOF” (University de Montreal, priority 2022, published 2026)
